Laboratory results taken from patent US20220411439A1, “POLYMORPHS OF A MACROCYCLIC KINASE INHIBITOR” (TURNING POINT THERAPEUTICS, INC., priority 2019, published 2022).

Tests used:
Ba/F3 KIF5B-RET_V804M = target: T1, Ba/F3 KIF5B-RET_V804M (Homo sapiens, UniProt P07949, V804M, cells depend on it); assay: Cell proliferation assay (CellTiter-Glo); type: cell-based; details: anti-cell proliferation, 72 hours; read-out: Ba/F3 KIF5B-RET_V804M IC50
T1 construct: fused on or other part: P33176 (Kinesin-1 heavy chain)
Source text: (§1) The KIF5B-RET gene was synthesized at GenScript and cloned into pCDH-CMV-MCS-EF1-Puro plasmid (System Biosciences, Inc). KIF5B-RET point mutation V804M and G810C were generated at GenScript by PCR and confirmed by sequencing. Ba/F3-KIF5B-RET wild type and mutant were generated by transducing Ba/F3 cells with lentivirus containing KIF5B-RET wide type or mutant. Stable cell lines were selected by puromycin treatment, followed by IL-3 withdrawal. Briefly, 5×10^6 Ba/F3 cells were transduced with lentivirus supernatant in the presence of 8 μg/mL protamine sulfate. The transduced cells were subsequently selected with 1 μg/mL puromycin in the presence of IL3-containing medium RPMI1640, plus 10% FBS. After 10-12 days of selection, the surviving cells were further selected for […] independent growth.
(§2) Two thousand cells per well were seeded in 384 well white plate for 24 hrs, and then treated with compounds for 72 hours (37° C., 5% CO2). Cell proliferation was measured using CellTiter-Glo luciferase-based ATP detection assay (Promega) following the manufactures's protocol. IC50 determinations were performed using GraphPad Prism software (GraphPad, Inc., San Diego, Calif.).

Ba/F3 KIF5B-RET = target: T2, Ba/F3 KIF5B-RET (Homo sapiens, UniProt P07949); assay: Cell proliferation assay (CellTiter-Glo); type: cell-based; details: anti-cell proliferation, 72 hours; read-out: Ba/F3 KIF5B-RET IC50
T2 construct: Ba/F3 KIF5B-RET IC50 (nM); other: anti-cell proliferation, 72 hours; fused on or other part: P33176 (Kinesin-1 heavy chain)
Source text: as §1, §2

Ba/F3 KIF5B-RET_G810C = target: T3, Ba/F3 KIF5B-RET_G810C (Homo sapiens, UniProt P07949, G810C, cells depend on it); assay: Cell proliferation assay (CellTiter-Glo); type: cell-based; details: anti-cell proliferation, 72 hours; read-out: Ba/F3 KIF5B-RET_G810C IC50
T3 construct: fused on or other part: P33176 (Kinesin-1 heavy chain)
Source text: as §1, §2

RET (E762Q) = target: T4, RET (E762Q) (Homo sapiens, UniProt P07949, E762Q); assay: Biochemical kinase assay; details: 10 μM ATP
T4 construct: purchased Reaction Biology Corporation (contract assay)
Protocol: (§3) The biochemical kinase assay was performed at Reaction Biology Corporation (www.reactionbiology.com, Malvern, Pa.) following the procedures described in the reference (Anastassiadis T, et al Nat Biotechnol. 2011, 29, 1039). Specific kinase/substrate pairs along with required cofactors were prepared in reaction buffer; 20 mM Hepes pH 7.5, 10 mM MgCl2, 1 mM EGTA, 0.02% Brij35, 0.02 mg/ml BSA, 0.1 mM Na3VO4, 2 mM DTT, 1% DMSO. Compounds were delivered into the reaction, followed ˜20 minutes later by addition of a mixture of ATP (Sigma, St. Louis Mo.) and ^33P ATP (Perkin Elmer, Waltham Mass.) to a final concentration of 10 μM. Reactions were carried out at room temperature for 120 min, followed by spotting of the reactions onto P81 ion exchange filter paper (Whatman Inc., Piscataway, N.J.). Unbound phosphate was removed by extensive washing of filters in 0.75% phosphoric acid. […] IC50 values and curve fits were obtained using Prism (GraphPad Software).

RET (V804E) = target: T5, RET (V804E) (Homo sapiens, UniProt P07949, V804E); assay: Biochemical kinase assay; details: 10 μM ATP
T5 construct: purchased Reaction Biology Corporation (contract assay)
Protocol: as §3

RET (G691S) = target: T6, RET (G691S) (Homo sapiens, UniProt P07949, G691S); assay: Biochemical kinase assay; details: 10 μM ATP
T6 construct: purchased Reaction Biology Corporation (contract assay)
Protocol: as §3

RET (S904A) = target: T7, RET (S904A) (Homo sapiens, UniProt P07949, S904A); assay: Biochemical kinase assay; details: 10 μM ATP
T7 construct: purchased Reaction Biology Corporation (contract assay)
Protocol: as §3

RET (S904F) = target: T8, RET (S904F) (Homo sapiens, UniProt P07949, S904F); assay: Biochemical kinase assay; details: 10 μM ATP
T8 construct: purchased Reaction Biology Corporation (contract assay)
Protocol: as §3

RET (A883F) = target: T9, RET (A883F) (Homo sapiens, UniProt P07949, A883F); assay: Biochemical kinase assay; details: 10 μM ATP
T9 construct: purchased Reaction Biology Corporation (contract assay)
Protocol: as §3

RET (V804M) = target: T10, RET (V804M) (Homo sapiens, UniProt P07949, V804M); assay: Biochemical kinase assay; details: 10 μM ATP
T10 construct: purchased Reaction Biology Corporation (contract assay)
Protocol: as §3

RET (V778I) = target: T11, RET (V778I) (Homo sapiens, UniProt P07949, V778I); assay: Biochemical kinase assay; details: 10 μM ATP
T11 construct: purchased Reaction Biology Corporation (contract assay)
Protocol: as §3

RET (L790F) = target: T12, RET (L790F) (Homo sapiens, UniProt P07949, L790F); assay: Biochemical kinase assay; details: 10 μM ATP
T12 construct: purchased Reaction Biology Corporation (contract assay)
Protocol: as §3

RET (R813Q) = target: T13, RET (R813Q) (Homo sapiens, UniProt P07949, R813Q); assay: Biochemical kinase assay; details: 10 μM ATP
T13 construct: purchased Reaction Biology Corporation (contract assay)
Protocol: as §3

RET (R749T) = target: T14, RET (R749T) (Homo sapiens, UniProt P07949, R749T); assay: Biochemical kinase assay; details: 10 μM ATP
T14 construct: purchased Reaction Biology Corporation (contract assay)
Protocol: as §3

RET-CCDC6 (PTC1) = target: T15, RET-CCDC6 (PTC1) (Homo sapiens, UniProt P07949); assay: Biochemical kinase assay; details: 10 μM ATP
T15 construct: CCDC6 fragment (fusion partner); purchased Reaction Biology Corporation (contract assay); the other entry of the earlier key: CCDC6 (Q16204, Coiled-coil domain-containing protein 6)
Protocol: as §3

RET (Y791F) = target: T16, RET (Y791F) (Homo sapiens, UniProt P07949, Y791F); assay: Biochemical kinase assay; details: 10 μM ATP
T16 construct: purchased Reaction Biology Corporation (contract assay)
Protocol: as §3

RET (Y806H) = target: T17, RET (Y806H) (Homo sapiens, UniProt P07949, Y806H); assay: Biochemical kinase assay; details: 10 μM ATP
T17 construct: purchased Reaction Biology Corporation (contract assay)
Protocol: as §3

RET (V804L) = target: T18, RET (V804L) (Homo sapiens, UniProt P07949, V804L); assay: Biochemical kinase assay; details: 10 μM ATP
T18 construct: purchased Reaction Biology Corporation (contract assay)
Protocol: as §3

RET (M918T) = target: T19, RET (M918T) (Homo sapiens, UniProt P07949, M918T); assay: Biochemical kinase assay; details: 10 μM ATP
T19 construct: purchased Reaction Biology Corporation (contract assay)
Protocol: as §3

T5 sequence (P07949 29-1114 V804E): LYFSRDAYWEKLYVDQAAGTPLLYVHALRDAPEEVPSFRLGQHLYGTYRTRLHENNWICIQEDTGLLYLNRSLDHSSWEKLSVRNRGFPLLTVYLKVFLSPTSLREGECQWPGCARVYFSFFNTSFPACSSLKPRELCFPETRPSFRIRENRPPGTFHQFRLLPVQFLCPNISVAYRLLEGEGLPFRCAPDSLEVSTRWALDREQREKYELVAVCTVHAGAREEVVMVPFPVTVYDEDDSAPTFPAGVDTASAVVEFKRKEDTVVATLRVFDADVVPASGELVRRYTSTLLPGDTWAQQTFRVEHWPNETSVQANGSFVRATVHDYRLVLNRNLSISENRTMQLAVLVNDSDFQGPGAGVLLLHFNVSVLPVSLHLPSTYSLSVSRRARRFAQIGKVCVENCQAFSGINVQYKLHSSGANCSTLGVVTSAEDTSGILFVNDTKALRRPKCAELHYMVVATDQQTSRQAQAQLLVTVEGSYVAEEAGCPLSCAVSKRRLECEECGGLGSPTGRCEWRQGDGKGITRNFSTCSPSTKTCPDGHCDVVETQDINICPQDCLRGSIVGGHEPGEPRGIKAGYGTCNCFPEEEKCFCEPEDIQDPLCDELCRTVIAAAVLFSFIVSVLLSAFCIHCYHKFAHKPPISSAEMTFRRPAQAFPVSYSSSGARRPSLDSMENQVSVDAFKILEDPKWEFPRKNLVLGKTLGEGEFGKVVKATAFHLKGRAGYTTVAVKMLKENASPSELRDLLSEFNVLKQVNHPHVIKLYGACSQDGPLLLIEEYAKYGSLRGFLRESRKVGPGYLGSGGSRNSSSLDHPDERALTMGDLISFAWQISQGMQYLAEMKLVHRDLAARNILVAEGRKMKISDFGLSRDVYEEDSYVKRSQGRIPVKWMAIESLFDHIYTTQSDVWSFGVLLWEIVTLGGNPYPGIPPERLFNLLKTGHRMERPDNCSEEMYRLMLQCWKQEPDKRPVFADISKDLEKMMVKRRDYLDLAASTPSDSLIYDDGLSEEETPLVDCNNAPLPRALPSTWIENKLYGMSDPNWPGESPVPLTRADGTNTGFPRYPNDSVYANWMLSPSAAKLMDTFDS
T13 sequence (P07949 29-1114 R813Q): as the sequence (P07949 29-1114 V804E) above, with E776V, R785Q counted along it
T11 sequence (P07949 29-1114 V778I): as the sequence (P07949 29-1114 V804E) above, with V750I, E776V counted along it
T6 sequence (P07949 29-1114 G691S): as the sequence (P07949 29-1114 V804E) above, with G663S, E776V counted along it
T18 sequence (P07949 29-1114 V804L): as the sequence (P07949 29-1114 V804E) above, with E776L counted along it
T17 sequence (P07949 29-1114 Y806H): as the sequence (P07949 29-1114 V804E) above, with E776V, Y778H counted along it
T2 sequence (P07949 whole entry, change not shown, the tested form may be a part): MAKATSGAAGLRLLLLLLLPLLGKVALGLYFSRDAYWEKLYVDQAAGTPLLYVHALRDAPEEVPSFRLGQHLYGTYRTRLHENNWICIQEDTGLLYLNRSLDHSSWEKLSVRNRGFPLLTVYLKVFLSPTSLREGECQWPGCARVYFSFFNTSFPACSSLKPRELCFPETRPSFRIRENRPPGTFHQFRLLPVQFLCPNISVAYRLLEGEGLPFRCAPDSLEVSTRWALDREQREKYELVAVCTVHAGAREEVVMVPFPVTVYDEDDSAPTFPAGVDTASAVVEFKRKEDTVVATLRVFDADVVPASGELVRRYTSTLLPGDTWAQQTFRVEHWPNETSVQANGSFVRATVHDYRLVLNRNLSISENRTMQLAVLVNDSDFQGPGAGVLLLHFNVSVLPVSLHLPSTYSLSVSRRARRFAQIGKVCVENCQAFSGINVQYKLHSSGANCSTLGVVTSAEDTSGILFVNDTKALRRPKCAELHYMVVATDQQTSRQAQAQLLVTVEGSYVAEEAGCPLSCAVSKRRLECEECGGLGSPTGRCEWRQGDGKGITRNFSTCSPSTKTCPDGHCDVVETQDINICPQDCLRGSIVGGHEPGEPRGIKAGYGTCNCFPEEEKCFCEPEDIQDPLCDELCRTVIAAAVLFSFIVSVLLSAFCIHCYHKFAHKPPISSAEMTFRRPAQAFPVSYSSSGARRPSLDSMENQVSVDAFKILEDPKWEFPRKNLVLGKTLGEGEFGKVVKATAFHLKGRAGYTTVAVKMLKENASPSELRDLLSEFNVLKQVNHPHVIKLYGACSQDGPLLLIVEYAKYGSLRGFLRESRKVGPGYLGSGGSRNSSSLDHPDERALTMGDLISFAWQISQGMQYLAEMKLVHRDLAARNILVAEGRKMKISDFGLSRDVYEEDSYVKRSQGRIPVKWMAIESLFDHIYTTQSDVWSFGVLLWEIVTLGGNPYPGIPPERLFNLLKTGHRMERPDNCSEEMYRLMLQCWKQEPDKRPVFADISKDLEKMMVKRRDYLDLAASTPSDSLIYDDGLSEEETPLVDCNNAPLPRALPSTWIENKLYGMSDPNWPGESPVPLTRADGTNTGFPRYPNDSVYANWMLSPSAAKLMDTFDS
T4 sequence (P07949 29-1114 E762Q): as the sequence (P07949 29-1114 V804E) above, with E734Q, E776V counted along it
T15 sequence (P07949 with tags, fused parts or gaps): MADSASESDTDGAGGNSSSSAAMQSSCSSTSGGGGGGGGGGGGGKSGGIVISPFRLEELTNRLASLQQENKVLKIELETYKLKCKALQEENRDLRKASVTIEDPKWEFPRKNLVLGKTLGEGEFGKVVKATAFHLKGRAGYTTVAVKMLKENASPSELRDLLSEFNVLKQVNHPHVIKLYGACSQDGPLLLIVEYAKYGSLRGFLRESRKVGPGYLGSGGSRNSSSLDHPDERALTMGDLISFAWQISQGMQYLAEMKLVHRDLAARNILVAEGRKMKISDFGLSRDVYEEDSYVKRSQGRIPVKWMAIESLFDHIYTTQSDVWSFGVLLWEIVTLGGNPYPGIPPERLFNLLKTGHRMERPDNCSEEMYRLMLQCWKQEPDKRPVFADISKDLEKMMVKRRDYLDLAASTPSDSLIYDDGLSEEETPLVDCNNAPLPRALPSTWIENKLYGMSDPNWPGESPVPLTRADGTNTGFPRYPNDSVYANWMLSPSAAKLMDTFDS
T8 sequence (P07949 29-1114 S904F): as the sequence (P07949 29-1114 V804E) above, with E776V, S876F counted along it
T10 sequence (P07949 29-1114 V804M): as the sequence (P07949 29-1114 V804E) above, with E776M counted along it
T12 sequence (P07949 29-1114 L790F): as the sequence (P07949 29-1114 V804E) above, with L762F, E776V counted along it
T1 sequence (P07949 whole entry V804M, the tested form may be a part): as the sequence (P07949 whole entry, change not shown, the tested form may be a part) above, with V804M counted along it
T9 sequence (P07949 29-1114 A883F): as the sequence (P07949 29-1114 V804E) above, with E776V, A855F counted along it
T19 sequence (P07949 29-1114 M918T): as the sequence (P07949 29-1114 V804E) above, with E776V, M890T counted along it
T3 sequence (P07949 whole entry G810C, the tested form may be a part): as the sequence (P07949 whole entry, change not shown, the tested form may be a part) above, with G810C counted along it
T14 sequence (P07949 29-1114 R749T): as the sequence (P07949 29-1114 V804E) above, with R721T, E776V counted along it
T7 sequence (P07949 29-1114 S904A): as the sequence (P07949 29-1114 V804E) above, with E776V, S876A counted along it
T16 sequence (P07949 29-1114 Y791F): as the sequence (P07949 29-1114 V804E) above, with Y763F, E776V counted along it

GI50 (Ba/F3 KIF5B-RET_V804M): 1000 nM
GI50 (Ba/F3 KIF5B-RET): 0.25 nM
GI50 (Ba/F3 KIF5B-RET_G810C): < 15 nM
IC50 (RET (E762Q)): 1 nM
IC50 (RET (V804E)): > 1000 nM
IC50 (RET (G691S)): 1.8 nM
IC50 (RET (S904A)): 0.9 nM
IC50 (RET (S904F)): 0.5 nM
IC50 (RET (A883F)): 1.2 nM
IC50 (RET (V804M)): 8.1 nM
IC50 (RET (V778I)): 0.1 nM
IC50 (RET (L790F)): 0.4 nM
IC50 (RET (R813Q)): 1.7 nM
IC50 (RET (R749T)): 0.8 nM
IC50 (RET-CCDC6 (PTC1)): 0.5 nM
IC50 (RET (Y791F)): 0.4 nM
IC50 (RET (Y806H)): 2.6 nM
IC50 (RET (V804L)): 6.2 nM
IC50 (RET (M918T)): 0.3 nM
SMILES: C[C@H]1CNC(=O)c2cnn3cc4c(nc23)N(Cc2cc(F)cnc2O1)[C@@H]1CCC[C@@H]1O4 [Compound I, (3aR,11S,20aS)-7-fluoro-11-methyl-2,3,3a,12,13,20a-hexahydro-1H,5H-17,19-(metheno)cyclopenta[5,6][1,4]oxazino[3,4-i]pyrazolo[4,3-f]pyrido[3,2-l][1,4,8,10]oxatriazacyclotridecin-14(11H)-one]
